The text below walks through data of patent US20220313682A1, “Pharmaceutical Compositions of (6aS)-6-methyl-5,6,6a,7-tetrahydro-4H-dibenzo[de,g]quinoline-10,11-diol” (Aclipse One Inc., priority 2019, published 2022).

The nature of the series: Solubility in aqueous media / aqueous buffer solutions. The series is classed as physicochemical.

Take `CN1CCc2cccc3c2[C@@H]1Cc1ccc(O)c(O)c1-3.Cl` [(6aS)-6-methyl-5,6,6a,7-tetrahydro-4H-dibenzo[de,g]quinoline-10,11-diol hydrochloride]: the “solubility in the aqueous buffer solutions” value (hydrochloride salt, aqueous buffer solutions) is reported as “low solubility”.

On to `CN1CCc2cccc3c2[C@@H]1Cc1ccc(O)c(O)c1-3` [(6aS)-6-methyl-5,6,6a,7-tetrahydro-4H-dibenzo[de,g]quinoline-10,11-diol], for which, under “free base, aqueous media at various pH”, the “solubility in the aqueous media at various pH” value is reported as “low solubility”.
